Common to all, as to assay: relative viability (nuclei count vs DMSO), 5 days (fraction); higher = more cells survive
Compound in assay [1]: CC(C)(C)c1cc(NC(=O)Nc2ccc(-c3cn4c(n3)sc3cc(OCCN5CCOCC5)ccc34)cc2)no1 [Quizartinib] + Cc1cc(Nc2cc(N3CCN(C)CC3)nc(Sc3ccc(NC(=O)C4CC4)cc3)n2)n[nH]1 [Tozasertib] (partner 0.1 µM)
The gist of the method:
(§1)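 Nuclei were stained with Hoechst during a one-step fixation (final 0.05% Triton X-100, 1% formaldehyde, 1 ug/ml Hoechst) carried out 5 days after dosing, then counted on 4× images. The cells, lung cancer lines in 1536-well plates, had been dosed by pin tool the day after seeding with one drug alone or a fixed anchor-drug dose plus five library-drug doses (not always all listed) in √10 steps. Relative viability is the nuclei count in treated wells divided by that in vehicle wells, and each value is the median of duplicate plates.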

Compound in assay [2]: CC(C)(C)c1cc(NC(=O)Nc2ccc(-c3cn4c(n3)sc3cc(OCCN5CCOCC5)ccc34)cc2)no1 [Quizartinib] + CS(=O)(=O)N1CCN(Cc2cc3nc(-c4cccc5[nH]ncc45)nc(N4CCOCC4)c3s2)CC1 [Pictilisib] (partner 1 µM)
A digest of the protocol: as §1

Compound in assay [3]: CC(C)(C)c1cc(NC(=O)Nc2ccc(-c3cn4c(n3)sc3cc(OCCN5CCOCC5)ccc34)cc2)no1 [Quizartinib] + C[C@]1(O)C[C@@H](c2nc(-c3ccc4ccc(-c5ccccc5)nc4c3)c3c(N)nccn32)C1 [Linsitinib] (partner 1 µM)
The gist of the method: as §1

Compound in assay [4]: CC(C)(C)c1cc(NC(=O)Nc2ccc(-c3cn4c(n3)sc3cc(OCCN5CCOCC5)ccc34)cc2)no1 [Quizartinib] + COc1cccc2cc(-c3nc([C@H]4CC[C@H](C(=O)O)CC4)n4ncnc(N)c34)[nH]c12 [OSI-027] (partner 0.5 µM)
The gist of the method: as §1

Regarding NCI-H2085, the relative viability in assay [1] (first compound 0.001 µM) was 0.679; in assay [1] (first compound 0.003162 µM) it was 0.752; in assay [1] (first compound 0.01 µM) it was 0.816; in assay [1] (first compound 0.03162 µM), 0.614; in assay [1] (first compound 0.1 µM) it was 0.45; in assay [2] (first compound 0.001 µM) it was 0.5. For the same cell line, the relative viability in assay [2] (first compound 0.003162 µM) was 0.504; in assay [2] (first compound 0.01 µM) it was 0.479; in assay [2] (first compound 0.03162 µM) it was 0.595; in assay [2] (first compound 0.1 µM) it was 0.523; in assay [3] (first compound 0.001 µM) it was 0.866; in assay [3] (first compound 0.003162 µM), 0.844. Moreover, the relative viability was 0.973 in assay [3] (first compound 0.01 µM); 0.907 in assay [3] (first compound 0.03162 µM); 0.948 in assay [3] (first compound 0.1 µM); 0.784 in assay [4] (first compound 0.001 µM); 0.648 in assay [4] (first compound 0.003162 µM); 0.662 in assay [4] (first compound 0.01 µM). The relative viability in assay [4] (first compound 0.03162 µM) worked out at 0.778; in assay [4] (first compound 0.1 µM), 0.525.
For the cell line NCI-H2087, the relative viability turned out to be 0.226 in assay [1] (first compound 0.003162 µM); 0.233 in assay [1] (first compound 0.01 µM); 0.189 in assay [1] (first compound 0.03162 µM); 0.262 in assay [1] (first compound 0.1 µM); 0.393 in assay [2] (first compound 0.001 µM); 0.867 in assay [2] (first compound 0.003162 µM). Besides, the relative viability amounted to 0.916 in assay [2] (first compound 0.01 µM); 0.665 in assay [2] (first compound 0.03162 µM); 0.81 in assay [2] (first compound 0.1 µM); 0.857 in assay [3] (first compound 0.001 µM); 0.98 in assay [3] (first compound 0.003162 µM); 1.06 in assay [3] (first compound 0.01 µM). The relative viability in assay [3] (first compound 0.03162 µM) worked out at 0.935; in assay [3] (first compound 0.1 µM), 0.705; in assay [4] (first compound 0.003162 µM), 0.583; in assay [4] (first compound 0.01 µM), 0.486; in assay [4] (first compound 0.03162 µM) it was 0.514; in assay [4] (first compound 0.1 µM) it was 0.496.
As to NCI-H2126, the relative viability in assay [1] (first compound 0.001 µM) came out at 0.751; in assay [1] (first compound 0.003162 µM) it was 0.848; in assay [1] (first compound 0.01 µM), 0.831; in assay [1] (first compound 0.1 µM), 0.846; in assay [2] (first compound 0.001 µM) it was 0.473; in assay [2] (first compound 0.003162 µM), 0.504. Further, the relative viability in assay [2] (first compound 0.01 µM) was 0.462; in assay [2] (first compound 0.03162 µM) it was 0.519; in assay [2] (first compound 0.1 µM) it was 0.541; in assay [3] (first compound 0.001 µM) it was 0.712; in assay [3] (first compound 0.003162 µM), 0.705; in assay [3] (first compound 0.01 µM) it was 0.735. Moreover, the relative viability amounted to 0.767 in assay [3] (first compound 0.03162 µM); 0.835 in assay [3] (first compound 0.1 µM); 0.66 in assay [4] (first compound 0.001 µM); 0.753 in assay [4] (first compound 0.003162 µM); 0.671 in assay [4] (first compound 0.01 µM); 0.621 in assay [4] (first compound 0.03162 µM). Moreover, the relative viability in assay [4] (first compound 0.1 µM) turned out to be 0.693.
For NCI-H2228, the relative viability in assay [1] (first compound 0.001 µM) was found to be 0.2; in assay [1] (first compound 0.003162 µM), 0.2; in assay [1] (first compound 0.01 µM), 0.208; in assay [1] (first compound 0.03162 µM), 0.228; in assay [1] (first compound 0.1 µM), 0.187; in assay [2] (first compound 0.001 µM) it was 0.364. Further, the relative viability in assay [2] (first compound 0.003162 µM) amounted to 0.312; in assay [2] (first compound 0.01 µM), 0.456; in assay [2] (first compound 0.03162 µM), 0.386; in assay [2] (first compound 0.1 µM), 0.464; in assay [3] (first compound 0.001 µM), 0.736; in assay [3] (first compound 0.003162 µM) it was 0.699. Besides, the relative viability in assay [3] (first compound 0.01 µM) was determined as 0.808; in assay [3] (first compound 0.03162 µM) it was 0.534; in assay [3] (first compound 0.1 µM), 0.624; in assay [4] (first compound 0.001 µM) it was 0.616; in assay [4] (first compound 0.003162 µM), 0.557; in assay [4] (first compound 0.01 µM), 0.679. In addition, the relative viability in assay [4] (first compound 0.03162 µM) is 0.431; in assay [4] (first compound 0.1 µM) it was 0.539.
Turning to NCI-H2347, the relative viability is 0.547 in assay [1] (first compound 0.001 µM); 0.419 in assay [1] (first compound 0.003162 µM); 0.531 in assay [1] (first compound 0.01 µM); 0.511 in assay [1] (first compound 0.03162 µM); 0.521 in assay [1] (first compound 0.1 µM); 0.628 in assay [2] (first compound 0.001 µM). Also, the relative viability is 0.958 in assay [2] (first compound 0.003162 µM); 0.793 in assay [2] (first compound 0.01 µM); 0.633 in assay [2] (first compound 0.03162 µM); 0.783 in assay [2] (first compound 0.1 µM); 0.943 in assay [3] (first compound 0.001 µM); 0.956 in assay [3] (first compound 0.003162 µM). The relative viability in assay [3] (first compound 0.01 µM) was 0.969; in assay [3] (first compound 0.03162 µM) it was 0.908; in assay [3] (first compound 0.1 µM), 1.07; in assay [4] (first compound 0.001 µM), 0.234; in assay [4] (first compound 0.003162 µM), 0.434; in assay [4] (first compound 0.01 µM), 0.365. Moreover, the relative viability in assay [4] (first compound 0.03162 µM) was determined as 0.377; in assay [4] (first compound 0.1 µM), 0.516.
For the cell line NCI-H2405, the relative viability in assay [1] (first compound 0.001 µM) came out at 0.742; in assay [1] (first compound 0.003162 µM), 0.722; in assay [1] (first compound 0.01 µM), 0.726; in assay [1] (first compound 0.03162 µM), 0.738; in assay [1] (first compound 0.1 µM), 0.68; in assay [2] (first compound 0.001 µM), 0.614. Further, the relative viability in assay [2] (first compound 0.003162 µM) stood at 0.442; in assay [2] (first compound 0.01 µM) it was 0.327; in assay [2] (first compound 0.03162 µM), 0.44; in assay [2] (first compound 0.1 µM), 0.503; in assay [3] (first compound 0.001 µM), 0.85; in assay [3] (first compound 0.003162 µM), 0.883. For the same cell line, the relative viability was 0.927 in assay [3] (first compound 0.01 µM); 0.909 in assay [3] (first compound 0.03162 µM); 1.09 in assay [3] (first compound 0.1 µM); 0.653 in assay [4] (first compound 0.001 µM); 0.702 in assay [4] (first compound 0.003162 µM); 0.736 in assay [4] (first compound 0.01 µM). Moreover, the values for the relative viability in assay [4] (first compound 0.03162 µM) and in assay [4] (first compound 0.1 µM) were 0.644 and 0.626, respectively.
Consider NCI-H3122, for which the relative viability in assay [1] (first compound 0.003162 µM) amounted to 0.368; in assay [1] (first compound 0.01 µM) it was 0.483; in assay [1] (first compound 0.1 µM), 0.337; in assay [2] (first compound 0.001 µM) it was 0.625; in assay [2] (first compound 0.003162 µM) it was 0.534; in assay [2] (first compound 0.01 µM), 0.608. Moreover, the relative viability in assay [2] (first compound 0.03162 µM) came to 0.626; in assay [2] (first compound 0.1 µM), 0.58; in assay [3] (first compound 0.001 µM), 1.04; in assay [3] (first compound 0.003162 µM), 1.03; in assay [3] (first compound 0.01 µM), 1.1; in assay [3] (first compound 0.03162 µM) it was 1.05. The relative viability in assay [3] (first compound 0.1 µM) turned out to be 0.964; in assay [4] (first compound 0.003162 µM) it was 0.947; in assay [4] (first compound 0.01 µM) it was 1.08; in assay [4] (first compound 0.1 µM) it was 0.877.

(Values after the supplement of paper PMC10307832.)
